Results published in the supplement of paper PMC8149375.

What was measured:
Settings in all cases: treatment: drug alone; 5 days
769-P [1] = assay: GI50, drug alone; higher = less potent
Method: (§1)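 Primary HTS: 8 RCC cell lines treated with 8 doses (up to 10 uM) of each library drug alone for 5 days; viability read by CellTiter-Glo and normalised to DMSO. GI50 was fitted with XLfit (4-parameter), AUC is the area under the dose-response curve, and minimum viability is the lowest fraction of DMSO viability across doses.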

786-O [2] = assay: GI50, drug alone; higher = less potent
Method: as §1

A498 [3] = assay: GI50, drug alone; higher = less potent
Method: as §1

ACHN [4] = assay: GI50, drug alone; higher = less potent
Method: as §1

CAKI-1 [5] = assay: GI50, drug alone; higher = less potent
Method: as §1

SN12C [6] = assay: GI50, drug alone; higher = less potent
Method: as §1

TK-10 [7] = assay: GI50, drug alone; higher = less potent
Method: as §1

UO-31 [8] = assay: GI50, drug alone; higher = less potent
Method: as §1

769-P [9] = assay: minimum viability across doses, drug alone, relative to DMSO (fraction); higher = less growth inhibition
Method: as §1

786-O [10] = assay: as above
Method: as §1

A498 [11] = assay: as above
Method: as §1

ACHN [12] = assay: as above
Method: as §1

CAKI-1 [13] = assay: as above
Method: as §1

SN12C [14] = assay: as above
Method: as §1

TK-10 [15] = assay: as above
Method: as §1

UO-31 [16] = assay: as above
Method: as §1

769-P [17] = assay: AUC of dose-response viability curve, drug alone (arbitrary (AUC of normalised viability)); higher = less growth inhibition
Method: as §1

786-O [18] = assay: as above
Method: as §1

A498 [19] = assay: as above
Method: as §1

ACHN [20] = assay: as above
Method: as §1

CAKI-1 [21] = assay: as above
Method: as §1

SN12C [22] = assay: as above
Method: as §1

TK-10 [23] = assay: as above
Method: as §1

UO-31 [24] = assay: as above
Method: as §1

Row | Compound | GI50, drug alone (769-P [1]) [nM] | GI50, drug alone (786-O [2]) [nM] | GI50, drug alone (A498 [3]) [nM] | GI50, drug alone (ACHN [4]) [nM] | GI50, drug alone (CAKI-1 [5]) [nM] | GI50, drug alone (SN12C [6]) [nM] | GI50, drug alone (TK-10 [7]) [nM] | GI50, drug alone (UO-31 [8]) [nM] | minimum viability across doses (769-P [9]) | minimum viability across doses (786-O [10]) | minimum viability across doses (A498 [11]) | minimum viability across doses (ACHN [12]) | minimum viability across doses (CAKI-1 [13]) | minimum viability across doses (SN12C [14]) | minimum viability across doses (TK-10 [15]) | minimum viability across doses (UO-31 [16]) | AUC of dose-response viability curve (769-P [17]) | AUC of dose-response viability curve (786-O [18]) | AUC of dose-response viability curve (A498 [19]) | AUC of dose-response viability curve (ACHN [20]) | AUC of dose-response viability curve (CAKI-1 [21]) | AUC of dose-response viability curve (SN12C [22]) | AUC of dose-response viability curve (TK-10 [23]) | AUC of dose-response viability curve (UO-31 [24])
1 | CS(=O)(=O)N1CCN(Cc2cc3nc(-c4cccc5[nH]ncc45)nc(N4CCOCC4)c3s2)CC1 [GDC-0941] | 1540 | 1530 | 6940 | 690 | 563 | 1940 | 660 | 2660 | 0.221 | 0.254 | 0.397 | 0.264 | 0.149 | 0.323 | 0.207 | 0.227 | 2.65 | 2.46 | 3.39 | 2.41 | 2.28 | 2.56 | 2.27 | 3.82
2 | Cc1c(CN2CCN(C(=O)[C@H](C)O)CC2)sc2c(N3CCOCC3)nc(-c3cnc(N)nc3)nc12 [GDC-0980 (RG7422)] | 495 | 495 | 1360 | 231 | 190 | 370 | 167 | 311 | 0.0688 | 0.0296 | 0.215 | 0.0739 | 0.0405 | 0.133 | 0.0656 | 0.0186 | 2.2 | 2.23 | 3.1 | 1.89 | 1.75 | 2.07 | 1.73 | 2.23
3 | COc1cc2ncnc(Nc3ccc(F)c(Cl)c3)c2cc1OCCCN1CCOCC1 [Gefitinib (Iressa)] | > 10000 | > 10000 | > 10000 | 1240 | 5880 | > 10000 | 1520 | > 10000 | 0.536 | 0.781 | 1.05 | 0.179 | 0.281 | 0.693 | 0.269 | 0.872 | 2.66 | 3.22 | 4.53 | 2.4 | 3.04 | 3.15 | 2.43 | 4.31
4 | CN1CCN(C2CCN(C(=O)Nc3cc(Oc4ccc(NC(=O)C5(C(=O)Nc6ccc(F)cc6)CC5)c(F)c4)ccn3)CC2)CC1 [Golvatinib (E7050)] | 9710 | 4230 | > 10000 | 1510 | 3060 | 7830 | 2590 | 9860 | 0.423 | 0.0352 | 0.613 | 0.0761 | 0.0988 | 0.346 | 0.284 | 0.471 | 3.55 | 2.78 | 4.37 | 2.67 | 3.05 | 3.38 | 2.56 | 5.28
5 | CCOC(=O)C1=C(N)Oc2ccc(Br)cc2[C@H]1[C@H](C#N)C(=O)OCC [HA14-1] | > 10000 | > 10000 | > 10000 | > 10000 | > 10000 | > 10000 | > 10000 | > 10000 | 0.973 | 0.81 | 0.885 | 0.852 | 0.957 | 0.867 | 0.948 | 0.891 | 3.84 | 3.27 | 3.57 | 3.35 | 3.67 | 3.19 | 3.55 | 4.2
6 | COc1ccc(S(=O)(=O)N(C(C)=O)c2ccccc2/C=C/c2cc[n+]([O-])cc2)cc1 [HMN-214] | 541 | 116 | 378 | 262 | 293 | 714 | 694 | 455 | 0.0968 | 0.00365 | 0.119 | 0.127 | 0.182 | 0.167 | 0.285 | 0.00366 | 2.36 | 1.3 | 2.36 | 2.14 | 2.1 | 2.47 | 2.14 | 2.75
7 | CCS(=O)(=O)Nc1ccc2c(c1)/C(=C(/Nc1ccc(CN3CCCCC3)cc1)c1ccccc1)C(=O)N2 [Hesperadin] | 1180 | 63.9 | 2500 | 111 | 189 | 199 | 1460 | 2490 | 0.0547 | 0.0109 | 0.0284 | 0.00749 | 0.0394 | 0.00306 | 0.0523 | 0.0115 | 2.53 | 1.54 | 3.72 | 1.63 | 1.85 | 1.86 | 2.46 | 3.32
8 | O=C(Nc1cc(C(F)(F)F)cc(C(F)(F)F)c1)c1cc(Cl)ccc1O [IMD 0354] | 1290 | 412 | 1590 | 943 | 1080 | 1350 | 1220 | 2960 | 0.0108 | 0.00771 | 0.0128 | 0.00484 | 0.036 | 0.00716 | 0.0653 | 0.019 | 2.71 | 2.03 | 3.46 | 2.4 | 2.8 | 2.67 | 2.4 | 4.73
9 | CC(C)n1nc(-c2ccc3oc(N)nc3c2)c2c(N)ncnc21 [INK 128] | 50.4 | 6.65 | 71 | 15.2 | 34.4 | 39 | 12 | 25.2 | 0.0864 | 0.00552 | 0.104 | 0.0484 | 0.0368 | 0.0865 | 0.0249 | 0.00678 | 1.34 | 0.69 | 1.63 | 0.901 | 1.12 | 1.27 | 0.931 | 0.778
10 | Cc1ccc(NC(=O)c2ccc(CN3CCN(C)CC3)cc2)cc1Nc1nccc(-c2cccnc2)n1 [Imatinib (Gleevec)] | > 10000 | > 10000 | > 10000 | > 10000 | > 10000 | > 10000 | > 10000 | > 10000 | 0.858 | 0.514 | 0.919 | 0.802 | 0.891 | 0.77 | 0.829 | 1.03 | 3.23 | 2.36 | 3.83 | 3.41 | 3.35 | 3.06 | 3.07 | 4.67
11 | CS(=O)(=O)O.Cc1ccc(NC(=O)c2ccc(CN3CCN(C)CC3)cc2)cc1Nc1nccc(-c2cccnc2)n1 [Imatinib Mesylate] | > 10000 | 8420 | > 10000 | > 10000 | > 10000 | > 10000 | > 10000 | > 10000 | 0.898 | 0.399 | 0.973 | 0.855 | 0.965 | 0.775 | 0.861 | 1.1 | 3.45 | 2.83 | 3.89 | 3.71 | 3.61 | 3.55 | 3.25 | 5.21
12 | O=C1Nc2ccccc2/C1=C1/Nc2ccccc2C1=O [Indirubin] | > 10000 | > 10000 | > 10000 | > 10000 | > 10000 | > 10000 | > 10000 | > 10000 | 0.811 | 0.529 | 0.827 | 0.778 | 0.762 | 0.703 | 0.635 | 0.655 | 3.19 | 2.32 | 3.26 | 2.9 | 2.94 | 2.66 | 2.6 | 2.68
13 | CCCNC(=O)Nc1ccc(Oc2ncnc3cc(OC)c(OC)cc23)cc1Cl [KRN 633] | > 10000 | 3930 | > 10000 | > 10000 | > 10000 | > 10000 | > 10000 | > 10000 | 0.861 | 0.366 | 0.974 | 0.742 | 0.817 | 0.718 | 0.664 | 0.734 | 3.34 | 2.11 | 4.07 | 2.92 | 3.24 | 2.93 | 2.8 | 3.91
14 | O=C(c1ccc(/C=C/c2n[nH]c3ccccc23)cc1)N1CCNCC1 [KW 2449] | > 10000 | > 10000 | > 10000 | 2120 | 3540 | 4760 | > 10000 | > 10000 | 0.549 | 0.814 | 0.828 | 0.215 | 0.268 | 0.241 | 0.645 | 0.86 | 3.12 | 3.77 | 3.72 | 2.67 | 2.93 | 3.03 | 3.23 | 4.33
15 | O=C(Cc1ccc(-c2ccc(OCCN3CCOCC3)cc2)cn1)NCc1ccccc1 [KX2-391] | 60.6 | 26.8 | 89.3 | 75.5 | 79.7 | 115 | 193 | 85.2 | 0.0797 | 0.00471 | 0.177 | 0.113 | 0.142 | 0.102 | 0.27 | 0.00967 | 1.43 | 0.9 | 1.84 | 1.66 | 1.67 | 1.72 | 1.95 | 1.48
16 | COc1cc2nccc(Oc3ccc(NC(=O)Nc4ccc(F)cc4F)c(F)c3)c2cc1OC [Ki8751] | > 10000 | > 10000 | > 10000 | > 10000 | 7430 | > 10000 | > 10000 | 445 | 0.559 | 0.673 | 1 | 0.574 | 0.403 | 0.877 | 0.72 | 0.00557 | 3.31 | 3.06 | 5.49 | 3.13 | 3.34 | 3.45 | 3.08 | 2.83
17 | CS(=O)(=O)CCNCc1ccc(-c2ccc3ncnc(Nc4ccc(OCc5cccc(F)c5)c(Cl)c4)c3c2)o1.Cc1ccc(S(=O)(=O)O)cc1.Cc1ccc(S(=O)(=O)O)cc1 [Lapatinib Ditosylate (Tykerb)] | 7100 | > 10000 | > 10000 | 5290 | 9610 | > 10000 | 3780 | > 10000 | 0.455 | 0.471 | 0.929 | 0.419 | 0.48 | 0.734 | 0.39 | 1.05 | 2.86 | 2.9 | 3.99 | 2.78 | 3.24 | 3.16 | 2.51 | 4.64
18 | Nc1cccc2c1CN(C1CCC(=O)NC1=O)C2=O (configuration not stated) [Lenalidomide (Revlimid)] | > 10000 | < 3 | > 10000 | > 10000 | > 10000 | > 10000 | > 10000 | > 10000 | 0.963 | 0.325 | 0.98 | 0.878 | 0.972 | 0.865 | 0.864 | 1.19 | 3.64 | 1.86 | 4.04 | 3.29 | 3.56 | 3.28 | 3.21 | 5.03
